Data from patent US11617741B1, “Method for inhibiting growth of bacteria” (priority 2021, dated 2023).
In brackets after ≈: the same amount, converted by molar mass. Marks after values point to notes of the source that are not given here.

How the values were obtained:
[1] = tested on: S. aureus biofilm; assay: MBEC-HTP biofilm model, combinations, Bliss independence model and CFU recovery; type: cell-based, Staphylococcus aureus
Procedure: This inherent resistance of bacteria in biofilms and the emergence of antibiotic-resistant bacteria has necessitated the drive to explore competent novel antimicrobial agents such as PKZ18 and the development of combinations of these novel antimicrobial agents with established antibiotics. We determined the minimum biofilm eradication concentration (MBEC) of compounds of Formula I in combination with vancomycin, gentamicin, rifampin, and tetracycline. Three independent experiments were conducted and required a checkerboard dilution to test various concentrations of the following combinations (compound of Formula I+each antibiotic) against S. aureus utilizing an established MBEC™-HTP biofilm model (Innovotech).
Briefly, an overnight culture of S. aureus was diluted to 1×10^5 cells/mL in cation-adjusted Mueller Hinton broth (MHB) supplemented with 1% human plasma and added to the wells of an MBEC plate. […] After incubation, the lid was removed and rinsed in PBS. Following treatment, a tetrazolium (2,3,5-triphenyl tetrazolium chloride, TTC) assay was performed to assess metabolic activity and viability. The lid was rinsed in PBS, transferred to a 96-well plate containing a 0.01% TTC solution in MHB, and incubated at 37° C. overnight. To dissolve the stain from the pegs, the lid was placed in a 96-well plate containing 96% ethanol and the OD of the wells was then read at 490 nm. Data was analyzed with the Bliss independence model using the Combenefit software.
After rinsing in PBS, designated pegs were snapped off the lid using sterile tweezers and placed in 1.5 mL Eppendorf tubes containing 200 μL PBS. Biofilm was disrupted from the pegs by sonicating the tubes for 15 min (Branson M8800H, Branson Ultrasonics, West Chester, Pa., USA), followed by vortexing for 10 s. Three independent serial dilutions were prepared for each sample and plated on tryptic soy agar (TSA) plates that were incubated overnight at 37° C. The plates were then imaged and colonies counted on a ColonyDoc-It™ Imaging station (UVP, Analytik Jena, Beverly, Mass., USA).

[2] = tested on: S. aureus N315 (MRSA); assay: Antibiotic resistance frequency (fluctuation assay); type: cell-based, Staphylococcus aureus; details: MRSA plated on 64 μg/ml PKZ18-22 or 10 μg/ml gentamicin
Source text: Gentamicin on BHI agar was used as a control.

[3] = tested on: B. subtilis 168
Procedure: Gentamicin on BHI agar was used as a control. In short, MRSA and B. subtilis were grown overnight in BHI, and 3-hour day cultures at the optical density of A620 of 0.1 were started for both organisms. The optical density after 3 hours of growth was measured; cultures were then pelleted and resuspended to give 10^11 CFU/ml by optical density. CFU of 10^11 per OD were plated in total; 100 μl of the cells were then plated on BHI agar containing either 128 μg/m1PKZ18 or 64 μg/m1PKZ18-22. Serial dilutions of the cells were plated on plain BHI agar in order to calculate the CFU/ml, which was calculated as the number of colonies found on the plates divided by the total number of bacteria plated. CFU means colony forming units, a measure of live bacteria.

[4] = tested on: E. coli; assay: Minimum inhibitory and bactericidal concentration determination, Gram-negative control; type: cell-based, Escherichia coli
Procedure: (§1) The 96-well plate was organized as follows. Media (100 μl) were added to all wells.

[5] = tested on: glyQS T-box; assay: qRT-PCR transcriptional read-through of T-box-regulated glyQS (confirmation of inhibition of T-box mechanism); type: cell-based, Bacillus subtilis 1A5; details: for T-Box targeting: confirmation of inhibition of T-box mechanism from qRT-PCR assay
Source text: Sample preparation of RNA and cDNA.

[6] = tested on: T-box controlled genes in MRSA; assay: RNA sequencing of MRSA grown in minimal media; type: cell-based, Staphylococcus aureus
[7] = tested on: S. aureus N315 (MRSA isolate); assay: Minimum inhibitory and bactericidal concentration determination; type: cell-based, Staphylococcus aureus
Procedure: as §1

[8] = tested on: S. aureus N315; assay: Checkerboard assay and FIC; type: cell-based, Staphylococcus aureus
Procedure: S. aureus N315 cultures were prepared identically to MIC determination in BHI media. The co-MICs were determined using the checkerboard method. In short, antibiotics to be tested with PKZ18 analogs were diluted 2-fold top to bottom (A to G rows) in a 96-well plate, PKZ18 analogs were diluted 2-fold right to left (columns 11-2 of the 96-well plate), and column 12 was used for vector, media, and growth controls. Each drug was therefore tested by itself and with every dilution of the other drug.
The synergistic and additive interactions were determined based on determined cutoffs using the equation
[formula] where MICAB is the lowest possible concentration of both drugs combined where there is no growth, and MICA and MICB are the MIC values of the individual drugs. For a synergistic drug interaction, the fractional inhibitory concentration (FIC) should be below 0.5, additive or indifferent effects are considered in an FIC range of 0.5 to <4, and an FIC value above 4 is considered antagonistic.

[9] = tested on: ileS and tyrS T-boxes in WT MRSA
Procedure: Sample preparation of RNA and cDNA. RNA extraction and cDNA preparation were conducted as previously reported. In short, guanidine thiocyanate (0.5 M final concentration)-treated and pelleted bacterial cultures were resuspended in TRIzol, lysed by beat beating with zirconia beads, and centrifuged.
The solution was transferred to fresh tubes, and the RNA was extracted with chloroform. The RNA was then pelleted with 100% isopropanol and washed with ice-cold 70% ethanol, resuspended in Millipore water, DNase treated, and extracted with another isopropanol precipitation and ethanol wash. The resulting RNA was quantified using a NanoDrop 3300 (Thermo Fisher), and the quality was assessed by running 1 μg on a denaturing agarose gel. DNA contamination was tested for by PCR followed by agarose gel electrophoresis. cDNA was generated from 1 μg of high-quality RNA using the SuperScript III reverse transcriptase protocol for random primers (Thermo Fisher).
Either 2-fold or 10-fold dilutions of cDNA were used, and amplification was monitored with Evagreen dye. The expression was normalized to either 23S (B. subtilis 1A5) or 16S (MRSA) and reported as percentage read-through of the T-boxes tested for, calculated using the threshold cycle (2^−ΔΔCT) method.

[10] = tested on: B. subtilis 168; assay: Minimum inhibitory concentration determination; type: cell-based, Bacillus subtilis
Procedure: as §1

[11] = tested on: planktonic growth of Staphylococcus
Procedure: An overnight culture of S. aureus (ATCC 29213) was diluted to 1×10^7 cells/mL in tryptic soy broth (TSB) supplemented with 10% human plasma (Innovative Research, Novi, Mich. USA) and added to the wells of an MBEC™-HTP Assay Biofilm Innoculator (Innovotech, Edmonton, AB, Canada). The plate was incubated overnight at 37° C. and shaken at 125 rpm. […] Control wells were without a COMPOUND OF Formula I. The treatment plate was incubated for 24 h at 37° C. after which the lid was removed, rinsed with PBS, and placed in a new 96-well plate containing TSB. The biofilm was removed from the assay lid into the recovery plate wells by sonication, a new plate cover was added, and the viability of the biofilm was determined after 24 h of incubation at 37° C. by reading the OD at 625 nm. Three independent experiments were conducted. Concentrations of interest were followed up with colony forming unit (CFU) recovery and scanning electron microscopy analysis. After conclusion of the MBEC assay, the minimum bactericidal concentration (MBC) was determined. The MBC is the lowest concentration of an antibacterial agent required to kill a particular bacterium. The peg lid from the MBEC assay was removed from the challenge plate and 20 μL of medium from each well of the challenge plate was removed and added to a new sterile 96-well plate filled with 180 μL TSB. […]

## CC(C)Cc1ccc(-c2csc(NC(=O)C3C4CCC(C4)C3C(=O)O)n2)cc1 (centres unmarked) [PKZ18-22]
[1]; PKZ18-22 25 μg/mL and gentamicin 16 μg/mL and 64 μg/mL
  highest synergy score (Bliss): 87
[1]; PKZ18-22 25 μg/mL and gentamicin 64 μg/mL, 24 h exposure
  log reduction in CFU/mL in biofilm growth: ~5 log
[1]; PKZ18-22 25 μg/mL and rifampin 0.001 or 0.005 μg/mL, single dose 24 h
  biofilm CFU reduction with rifampin combination: significantly greater reduction when compared to each treatment alone
[1]; PKZ18-22 25 μg/mL and vancomycin 4 μg/mL
  maximal synergy score (Bliss): 43
[1]; combination of gentamicin/PKZ18-22, single dose 24 h challenge
  cell reduction: > 99.9%
[1]; single dose 24 h challenge
  synergy with minocycline: not synergistic
[2]
  resistance frequency: 5.6×10^−12
[3]
  resistant colonies: did not generate resistant colonies
[4]
  MIC E. coli: > 256 µg/mL
[4]; value in parentheses
  MBC E. coli: > 256 µg/mL
[5]; 4 μg/ml of each drug, side by side in same biological replicate
  inhibition of read-through compared with PKZ18: significantly better than PKZ18
[5]; B. subtilis 1A5, increasing concentrations, minimal media
  T-box-controlled expression of glyQS (termination of read-through): inhibited
[5]; Table 1
  T-Box targeting: Yes
[5]; Table 2
  T-Box targeting: Yes
[6]; 4 and 8 μg/ml
  cysteine and histidine T-boxes (cysE-cysS and hisS-aspS operons): inhibited only by the higher concentration
  read-through of alaS: not inhibited
  read-through reduction of tyrS: not statistically significant
[6]; 4 and 8 μg/ml vs untreated
  overall change in gene expression: large overall change in expression
[6]; 4 or 8 μg/ml PKZ18-22
  genes under T-box control (out of the 12) with reduced expression: 8
[6]; both concentrations (4 and 8 μg/ml), normalized to untreated
  read-throughs of glyS, ileS, leuS, pheST, serS, thrS and valS: reduction
[6]; non-T-box 5′UTR regulated genes
  relative read-through of other riboswitch-controlled genes: did not significantly change
[7]; MRSA
  bactericidal effect: bactericidal
[7]; MRSA strain S. aureus N315
  fold reduction in MIC in minimal compared to rich media: 4 fold
[7]; S. aureus N315, minimal media
  MIC against S. aureus in minimal media: 8^b μg/ml
[7]; S. aureus N315, rich media
  MIC against S. aureus in rich media: 32^b μg/ml
[7]; Table 2
  MIC S. aureus N315: 32 µg/mL (≈ 80.3 µM)
[7]; Table 2, value in parentheses
  MBC S. aureus N315: 64 µg/mL (≈ 161 µM)
[8]; both rich and minimal media, WT MRSA
  FIC of PKZ18-22 and gentamicin: 0.38
[8]; in combination with gentamicin
  fold decrease in the MIC of PKZ18-22: 4 fold
[8]; with ampicillin
  fractional inhibitory concentration FIC: 0.75
[8]; with chloramphenicol
  fractional inhibitory concentration FIC: 0.75
[8]; with gentamicin
  fractional inhibitory concentration FIC: 0.38
[8]; with kanamycin A
  fractional inhibitory concentration FIC: 0.38
[8]; with neomycin B
  fractional inhibitory concentration FIC: 0.38
[8]; with streptomycin
  fractional inhibitory concentration FIC: 0.75
[9]; MRSA in minimal media, 4 μg/ml
  relative read-through of ileS and tyrS: decrease
[9]; MRSA in rich media, 8 μg/ml
  read-through of ileS and tyrS: reduced
[10]; B. subtilis 168
  bactericidal effect: bactericidal
[10]; minimal media
  MIC against B. subtilis 168 in minimal media: 4 µg/mL (≈ 10 µM)
[10]; rich media
  MIC against B. subtilis 168 in rich media: 16 µg/mL (≈ 40.1 µM)
[11]
  planktonic growth over a range of concentrations: killing curve
